In patent US8846704B2, “Thiopyrimidine-based compounds and uses thereof” (YM Biosciences Austraila Pty Ltd, priority 2007, dated 2014):

Experiments:
[1] = molecular target: T1, BaF3 TELJAK2 cells (BafT_J2) (Homo sapiens, UniProt O60674); assay: Cellular screening, BaF3 TEL:JAK2 cells, Alamar Blue; assay type: cell-based; details: 40 hr, read-out: BafT_J2 IC50_nM
T1 construct: fused on or other part: TEL (ETV6) N-terminal part, coding nucleotides 1-487, serves as the oligomerising partner; It is fused through a Sal I site to the JAK2 kinase domain and expressed from pTRE2 in BaF3 cells bearing pTET-off; P41212 (Transcription factor ETV6)
T1 sequence (O60674 whole entry, change not shown, the tested form may be a part): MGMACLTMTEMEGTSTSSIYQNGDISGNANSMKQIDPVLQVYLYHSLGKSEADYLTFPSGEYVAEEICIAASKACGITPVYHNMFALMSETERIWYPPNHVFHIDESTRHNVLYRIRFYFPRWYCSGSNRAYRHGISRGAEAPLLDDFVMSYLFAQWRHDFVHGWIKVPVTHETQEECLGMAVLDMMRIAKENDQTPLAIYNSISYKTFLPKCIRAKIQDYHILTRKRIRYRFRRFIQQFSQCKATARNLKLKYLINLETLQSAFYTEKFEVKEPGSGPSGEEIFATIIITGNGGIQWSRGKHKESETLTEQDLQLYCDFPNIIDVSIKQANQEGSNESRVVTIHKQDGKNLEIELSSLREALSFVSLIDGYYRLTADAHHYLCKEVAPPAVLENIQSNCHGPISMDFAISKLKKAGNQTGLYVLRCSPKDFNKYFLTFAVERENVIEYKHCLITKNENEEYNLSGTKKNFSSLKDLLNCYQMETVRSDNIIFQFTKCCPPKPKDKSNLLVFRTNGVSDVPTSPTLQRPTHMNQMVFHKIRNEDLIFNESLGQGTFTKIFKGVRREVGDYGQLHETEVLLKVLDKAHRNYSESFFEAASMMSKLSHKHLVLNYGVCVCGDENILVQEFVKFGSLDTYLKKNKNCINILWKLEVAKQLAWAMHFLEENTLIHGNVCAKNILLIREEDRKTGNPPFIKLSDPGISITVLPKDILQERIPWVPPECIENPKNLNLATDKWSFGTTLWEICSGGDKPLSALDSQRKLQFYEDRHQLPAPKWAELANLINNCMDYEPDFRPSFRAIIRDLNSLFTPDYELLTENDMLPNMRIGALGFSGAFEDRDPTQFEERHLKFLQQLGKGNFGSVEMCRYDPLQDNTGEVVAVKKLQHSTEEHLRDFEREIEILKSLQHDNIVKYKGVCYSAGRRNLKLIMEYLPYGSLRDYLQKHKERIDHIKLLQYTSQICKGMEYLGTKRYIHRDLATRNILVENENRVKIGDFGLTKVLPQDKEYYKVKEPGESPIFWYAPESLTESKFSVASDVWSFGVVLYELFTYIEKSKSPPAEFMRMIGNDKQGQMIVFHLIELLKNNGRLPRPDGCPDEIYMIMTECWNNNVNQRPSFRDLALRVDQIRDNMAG
How it was run: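 Tet-off BaF3 cells carrying a TEL (nt 1-487)–JAK2 kinase-domain fusion, grown factor-independently in DMEM with 10% Tet-approved FBS without WEHI 3B medium. Compounds were diluted to 20 μM in screening plates, and cells (50,000–200,000 cell/mL at 1.1×) were incubated 40 hr at 37 °C, 5% CO2. Alamar Blue was then added for 4-6 hours; read at 544 nm.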

BaF3 TELJAK3 cells = molecular target: T2, BaF3 TELJAK3 cells (Homo sapiens, UniProt P52333); assay: Cellular screening, BaF3 TEL:JAK3 cells, Alamar Blue; assay type: cell-based; details: 40 hr, read-out: BafT_J3 IC50_nM
T2 construct: fused on or other part: TEL (ETV6) N-terminal part, coding nucleotides 1-487, serves as the oligomerising partner; It is fused through a Sal I site to the JAK3 kinase domain and expressed from pTRE2 in BaF3 cells bearing pTET-off; P41212 (Transcription factor ETV6)
T2 sequence (P52333 1-1124): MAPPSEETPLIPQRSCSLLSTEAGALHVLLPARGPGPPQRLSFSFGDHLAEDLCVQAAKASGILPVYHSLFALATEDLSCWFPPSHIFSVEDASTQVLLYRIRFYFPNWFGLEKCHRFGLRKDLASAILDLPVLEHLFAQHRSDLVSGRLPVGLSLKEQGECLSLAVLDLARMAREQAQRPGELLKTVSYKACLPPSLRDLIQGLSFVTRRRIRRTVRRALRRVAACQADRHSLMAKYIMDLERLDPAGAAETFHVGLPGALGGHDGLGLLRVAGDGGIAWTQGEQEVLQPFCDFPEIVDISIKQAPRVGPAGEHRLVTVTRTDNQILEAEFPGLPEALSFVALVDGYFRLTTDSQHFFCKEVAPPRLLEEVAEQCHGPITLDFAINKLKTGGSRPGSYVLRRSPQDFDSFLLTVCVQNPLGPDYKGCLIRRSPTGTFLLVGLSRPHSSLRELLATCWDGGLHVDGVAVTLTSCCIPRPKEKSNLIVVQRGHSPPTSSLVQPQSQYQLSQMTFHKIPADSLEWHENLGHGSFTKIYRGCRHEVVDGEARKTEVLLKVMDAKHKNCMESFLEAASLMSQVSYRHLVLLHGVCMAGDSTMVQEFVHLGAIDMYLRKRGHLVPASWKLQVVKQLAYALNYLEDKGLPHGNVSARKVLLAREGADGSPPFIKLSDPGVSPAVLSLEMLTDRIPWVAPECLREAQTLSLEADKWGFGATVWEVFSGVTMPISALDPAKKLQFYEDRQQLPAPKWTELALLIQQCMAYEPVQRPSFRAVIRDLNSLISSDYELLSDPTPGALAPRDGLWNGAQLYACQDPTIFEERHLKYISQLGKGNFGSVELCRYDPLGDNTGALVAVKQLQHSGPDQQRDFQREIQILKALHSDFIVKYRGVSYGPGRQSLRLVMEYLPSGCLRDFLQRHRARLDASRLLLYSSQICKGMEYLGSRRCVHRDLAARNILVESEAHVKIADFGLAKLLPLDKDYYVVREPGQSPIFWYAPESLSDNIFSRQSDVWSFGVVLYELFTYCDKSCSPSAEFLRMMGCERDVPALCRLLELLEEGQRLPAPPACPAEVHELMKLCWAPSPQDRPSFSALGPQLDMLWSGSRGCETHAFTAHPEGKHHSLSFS
Protocol: For screening purposes, compounds were diluted in 96 well plates at a concentration of 20 μM. Plates were warmed at 37° C. for 30 minutes before the assay was performed.
The coding region encompassing nucleotides 1-487 of TEL was amplified by PCR using the oligonucleotides STEL (5′-GGAGGATCCTGATCTCTCTCGCTGTGAGAC-3′) [SEQ ID NO 14] and 3TEL (5′-AGGC GTCGACTTCTTCTTCATGGTTCTG-3′) [SEQ ID NO 15] and U937 mRNA as a template. A […] restriction site was incorporated into the STEL primer, and a Sal I restriction site was incorporated into the 3TEL primer. The regions encompassing the kinase domain of JAK2 (nucleotides 2994-3914; JAK2F 5′-ACGC GTCGACGGTGCCTTTGAAGACCGGGAT-3′ [SEQ ID NO 16]; JAK2R 5′-ATAGTTTAGCGGCCGCTCAGAATGAAGGTCATTT-3′) [SEQ ID NO 17] and JAK3 (nucleotides 2520-3469; JAK3F 5′-GAAGTCGACTATGCCTGCCAAGACCCCACGATCTT-3′) [SEQ ID NO 18] were generated by PCR using Taq DNA polymerase (Gibco/BRL) and […] as a template. A Sal I restriction site was incorporated into the forward primer of JAK2 and JAK3, a Not I site was incorporated into the JAK2 reverse primer and a Xba I site was added to the reverse primer of JAK3.
The TEL/Jak3 fusion was prepared by ligation of the JAK3 Sal I/Not I cleaved kinase domain PCR product with the BamH I/Sal I restriction digested TEL product, followed by ligation of the ligation product into the BamH I/Not I digested pTRE2, to give the TEL/Jak3 fusion plasmid pTELJAK3.
The growth factor dependant myelomonocytic cell line BaF3 bearing the pTET-off plasmid (Clontech) was transfected with either pTELJAK2 or pTELJAK3, and the transfected cells were selected for growth-factor independent cell growth. The BaF3 wild-type cells were cultured in DMEM containing 10% FCS, 10% WEHI 3B conditioned medium. The BaF3 TELJAK cells ([…]) were cultured in DMEM 10% Tet-System Approved FBS (without WEHI 3B conditioned medium).
Cell suspensions were prepared by harvesting cells from culture (the cells used in this test were in late log phase growth with high viability.) Cells were diluted in the appropriate growth medium, as described above, to 1.1× final concentration (from 50,000 cell/mL to 200,000 cell/mL, depending on cell line).
Compounds to be tested were added (10 μL, 10× final concentration) to a flat bottomed 96-well plate. The cellular suspension (90 μL per well) was then added, and the plate incubated for 40 hr at 37° C., 5% CO2. Alamar Blue 10 μL per well was added and the plates returned to the incubator for a further 4-6 hours. The plates were then read at 544 nm.

`C=CC(=O)Nc1ccc(Sc2nc(Nc3ccc(C4CCN(C)CC4)cc3)ncc2C)cc1` [Compound 246, N-(4-(5-methyl-2-(4-(1-methylpiperidin-4-yl)phenylao)pyrimidin-4-ylthio)phenyl)acrylamide] was tested, and the GI50 [1] was < 5 µM and the GI50 (BaF3 TELJAK3 cells) was < 1 µM.

`C=CC(=O)Nc1ccc(Sc2nc(Nc3ccc(N4CCOCC4)c(OC)c3)ncc2C)cc1` [Compound 248, N-(4-(2-(3-methoxy-4-morpholinophenylao)-5-methylpyrimidin-4-ylthio)phenyl)acrylamide] was tested, and the GI50 [1] was < 20 µM and the GI50 (BaF3 TELJAK3 cells) was < 1 µM.

With `C=CC(=O)Nc1ccc(Sc2nc(Nc3ccc(N4CCN(C)CC4)c(OC)c3)ncc2C)cc1` [Compound 249, N-(4-(2-(3-methoxy-4-(4-methylpiperazin-1-yl)phenylao)-5-methylpyrimidin-4-ylthio)phenyl)acrylamide] the GI50 [1] was < 5 µM and the GI50 (BaF3 TELJAK3 cells) was < 1 µM.

`Cc1cnc(Nc2ccc(N3CCOCC3)cc2)nc1Sc1ccc(N)cc1Cl` [Compound 251, 4-(4-ao-2-chlorophenylthio)-5-methyl-N-(4-morpholinophenyl)pyrimidin-2-ae] was tested, and the GI50 [1] was > 20 µM and the GI50 (BaF3 TELJAK3 cells) was > 20 µM.

In the case of `C=CC(=O)Nc1ccc(Sc2nc(Nc3ccc(N4CCC(CO)CC4)cc3)ncc2Br)cc1` [Compound 253, N-(4-(5-bromo-2-(4-(4-(hydroxymethyl)piperidin-1-yl)phenylao)pyrimidin-4-ylthio)phenyl)acrylamide], the GI50 [1] is reported as < 20 µM and the GI50 (BaF3 TELJAK3 cells) is reported as < 1 µM.

For `C=CC(=O)Nc1ccc(Sc2nc(Nc3ccc(N4CCOCC4)nc3)ncc2C)cc1` [Compound 254, N-(4-(5-methyl-2-(6-morpholinopyridin-3-ylao)pyrimidin-4-ylthio)phenyl)acrylamide], the GI50 [1] was < 5 µM and the GI50 (BaF3 TELJAK3 cells) was < 1 µM.

For `Cc1cc(Sc2nc(Nc3ccc(N4CCOCC4)cc3)ncc2C)ccc1N` [Compound 255, 4-(4-ao-3-methylphenylthio)-5-methyl-N-(4-morpholinophenyl)pyrimidin-2-ae], the GI50 [1] was < 20 µM and the GI50 (BaF3 TELJAK3 cells) was < 20 µM.

For `C=CC(=O)Nc1ccc(Sc2nc(Nc3ccc(N4CCOCC4)cc3)ncc2C)cc1C` [Compound 259], the GI50 [1] was < 20 µM and the GI50 (BaF3 TELJAK3 cells) was < 1 µM.

In the case of `C=CC(=O)Nc1ccc(Sc2nc(Nc3ccc(N4CCOCC4)cc3)ncc2C)cc1CC` [Compound 260, N-(2-ethyl-4-(5-methyl-2-(4-morpholinophenylao)pyrimidin-4-ylthio)phenyl)acrylamide], the GI50 [1] is reported as > 20 µM and the GI50 (BaF3 TELJAK3 cells) is reported as < 5 µM.

`C=CC(=O)N(C)c1ccc(Sc2nc(Nc3ccc(N4CCOCC4)cc3)ncc2Br)cc1` [Compound 261, N-(4-(5-bromo-2-(4-morpholinophenylao)pyrimidin-4-ylthio)phenyl)-N-methylacrylamide] was tested, and the GI50 [1] was > 20 µM and the GI50 (BaF3 TELJAK3 cells) was < 1 µM.

`Cc1cnc(Nc2ccc(N3CCOCC3)cc2)nc1Sc1ccc(N)nc1` [Compound 262, 4-(6-aopyridin-3-ylthio)-5-methyl-N-(4-morpholinophenyl)pyrimidin-2-ae] was tested, and the GI50 [1] was < 20 µM and the GI50 (BaF3 TELJAK3 cells) was > 20 µM.

In the case of `Nc1ccc(Sc2nc(Nc3ccc(N4CCOCC4)cc3)ncc2F)cc1` [Compound 263, 4-(4-aophenylthio)-5-fluoro-N-(4-morpholinophenyl)pyrimidin-2-ae], the GI50 [1] is reported as < 5 µM and the GI50 (BaF3 TELJAK3 cells) is reported as < 5 µM.

For `Nc1ccc(Sc2nc(Nc3cccc(N4CCOCC4)c3)ncc2I)cc1` [Compound 264, 4-(4-aophenylthio)-5-iodo-N-(3-morpholinophenyl)pyrimidin-2-ae], the GI50 [1] was < 5 µM and the GI50 (BaF3 TELJAK3 cells) was < 5 µM.

In the case of `C=CC(=O)Nc1ccc(Sc2nc(Nc3cccc(N4CCOCC4)c3)ncc2F)cc1` [Compound 267, N-(4-(5-fluoro-2-(3-morpholinophenylao)pyrimidin-4-ylthio)phenyl)acrylamide], the GI50 [1] is reported as < 5 µM and the GI50 (BaF3 TELJAK3 cells) is reported as < 1 µM.

For `C=CC(=O)Nc1ccc(Sc2nc(Nc3ccc(N4CCOCC4)cc3)ncc2F)cc1` [Compound 268, N-(4-(5-fluoro-2-(4-morpholinophenylao)pyrimidin-4-ylthio)phenyl)acrylamide], the GI50 [1] was > 20 µM and the GI50 (BaF3 TELJAK3 cells) was < 1 µM.

With `C=CC(=O)Nc1ccc(Sc2nc(Nc3cccc(N4CCOCC4)c3)ncc2I)cc1` [Compound 269, N-(4-(5-iodo-2-(3-morpholinophenylao)pyrimidin-4-ylthio)phenyl)acrylamide] the GI50 [1] was < 20 µM and the GI50 (BaF3 TELJAK3 cells) was < 1 µM.

`C=CC(=O)Nc1ccc(Sc2ccnc(Nc3ccc(O)cc3)n2)cc1` [Compound 276, N-(4-(2-(4-hydroxyphenylao)pyrimidin-4-ylthio)phenyl)acrylamide] was tested, and the GI50 [1] was < 20 µM and the GI50 (BaF3 TELJAK3 cells) was < 1 µM.

In the case of `C=CC(=O)Nc1ccc(Sc2ccnc(Nc3cccc(O)c3)n2)cc1` [Compound 277, N-(4-(2-(3-hydroxyphenylao)pyrimidin-4-ylthio)phenyl)acrylamide], the GI50 [1] is reported as < 5 µM and the GI50 (BaF3 TELJAK3 cells) is reported as < 1 µM.

For `C=CC(=O)Nc1ccc(Sc2ccnc(Nc3cccc(CO)c3)n2)cc1` [Compound 278, N-(4-(2-(3-(hydroxymethyl)phenylao)pyrimidin-4-ylthio)phenyl)acrylamide], the GI50 [1] was < 5 µM and the GI50 (BaF3 TELJAK3 cells) was < 1 µM.

`C=CC(=O)Nc1ccc(Sc2nc(Nc3cccc(CO)c3)ncc2C)cc1` [Compound 280, N-(4-(2-(3-(hydroxymethyl)phenylao)-5-methylpyrimidin-4-ylthio)phenyl)acrylamide] was tested, and the GI50 [1] was < 20 µM and the GI50 (BaF3 TELJAK3 cells) was < 1 µM.

`C=CC(=O)Nc1ccc(Sc2nc(Nc3ccc(NS(C)(=O)=O)cc3)ncc2C)cc1` [Compound 285, N-(4-(5-methyl-2-(4-(methylsulfonamido)phenylao)pyrimidin-4-ylthio)phenyl)acrylamide] was tested, and the GI50 [1] was < 5 µM and the GI50 (BaF3 TELJAK3 cells) was < 1 µM.
